This is an account of results in US4970206A, “Pyroglutamic acid esters used as dermal penetration enhancers for drugs” (Merck & Co., Inc., priority 1989, dated 1990).

Read-outs that look alike come from different tables or passages of the source.

Series [1] is described as follows: Permeation enhancement of enalapril, clonidine and acyclovir using pyroglutamic esters. In kind it is in vitro ADME, Elaphae obsolete (black rat snake). As to conditions: for Flux of clonidine ± SD / % of clonidine delivered in 48 hrs ± SD: clonidine with enhancer; for Flux of enalapril ± SD / % of enalapril delivered in 48 hrs ± SD: enalapril with enhancer; for Flux of acyclovir ± SD / % of acyclovir delivered in 48 hrs ± SD: acyclovir with enhancer; for % delivered in 48 hrs ± SD: no enhancer. As to the method:
(§1) In the examples given below, the permeation enhancement was determined using an in vitro diffusion cell procedure. The molts of adult Elaphae obsolete (black rat snake) was used as the model for stratum corneum membrane (R. Ibuki, Ph.D. Thesis, University of Kansas, 1985). The shed snake skin has great similarities to human skin in terms of thickness, composition of constituents and structure and has been proposed as the most suitable model for human stratum corneum for permeability studies.
Glass diffusion cells consisting of a donor and receptor cells separated by the shed snake skin membrane were assembled using circular O-ring joints held together by spring clamps. The exposed membrane surface area of the diffusion cell measured 1.8 cm^2. Before being mounted in the diffusion cell approximately 25 mg of an ointment containing the therapeutic agent and the penetration enhancer was carefully applied to the membrane and was spread over the desired area. The receptor side was filled with approximately 8.5 ml of buffer solution consisting of 1.5×10^-1 M NaCl, 5×10^-4 NaH2 PO4 and 2.0×10^-4 M Na2 HPO4 adjusted to pH 7.2 with NaOH. The diffusion cell was immersed vertically in a water bath maintained at 32°±1° C. The receptor cell was stirred constantly with a magnetic stirrer. To determine the amount of compound penetrated through the snake skin membrane from the upper chamber, 0.2 ml samples were withdrawn at varying intervals from the receptor chamber using a syringe. An equal amount of fresh buffer was replenished during sampling. The concentration of drug penetrated in each diffusion cell was measured using high pressure liquid chromatography. […]

Series [2] concerns skin (dorsal surface) of fuzzy rats. The series is described as follows: Skin Irritation Study (modified Draize, 3-day occlusive dermal application). The note with it: 3 DAY occlusion, 50 mg over 2 cm^2, maximum 8; for Primary Irritation Index (PII), T0-T72 hrs: irritation index ± SD (n). The format is in vivo. The arrangement: key: modified Draize index, 0-8 (erythema 0-4 + edema 0-4). As to the method: Fuzzy rats (Temple University) 150 to 200 g were used to study the dermal irritancy as the neat compounds. Test preparations (50 mg) were applied to circular gauze pads 1 mm thick and 16 mm in diameter, and affixed to the animals' dorsal surface with occlusive adhesive film (Adhesive Plaster for Patch Test, Kanebo, Ltd., Osaka, Japan). The occlusive dressings were removed after 3 or 7 days. Treated skin areas were then evaluated according to a modified Draize scoring method, and the irritation index was evaluated for each test site. The first or "primary irritation index" (PII) was an average value reflecting irritation both immediately after dressing removal, and 72 hours later. The "secondary irritation index" (SII) was determined 7 days after dressing removal. The maximum possible PII or SII was 8 with a total possible score of 4 erythema, and a total possible score of 4 for edema. A PII or SII less than or equal to 2 indicated a mild irritant, a PII or SII greater than 2 but less than or equal to 6 indicated a moderate irritant, and a PII greater than 6 indicated a severe irritant as shown in Table 1 below: […]

The format of series [3] is in vitro ADME, Elaphae obsolata (black rat snake). The note with it: n = 5; for Flux of 2,3-dihydro-5-hydroxy-6-(o-hydroxymethylcinnamyl)benzofuran ± SD / % of 2,3-dihydro-5-hydroxy-6-(o-hydroxymethylcinnamyl)benzofuran delivered in 48 hrs ± SD: 1% (w/w) drug with 15% (w/w) enhancer; for Flux of 2,3-dihydro-5-hydroxy-6-(o-hydroxymethylcinnamyl)benzofuran ± SD: 32°. Here is the method: The transport of 2,3-dihydro-5-hydroxy-6-(o-hydroxymethylcinnamyl)benzofuran, through shed snake skin, which has been reported to be a good model for human stratum corneaum in terms of thickness, compositional features, structure and permeability, was measured in the presence of decyl, dodecyl and oleyl esters of L-pyroglutamic acid used as penetration enhancers.
Because of the poor aqueous solubility of 2,3-dihydro 5-hydroxy-6-(o-hydroxymethylcinnamyl)benzofuran (<0.0002 mg/ml at 32°), 20% propyleneglycol in isotonic pH 7.2 phosphate buffer was used as the receptor medium. […] A weighed amount of a petrolatum ointment (30-35 mg) containing 1% (w/w) of 2,3-dihydro-5-hydroxy-6-(o-hydroxymethylcinnamyl)benzofuran with or without 15% (w/w) of the permeation enhancer was applied to 1.76 cm^2 area of shed skin of adult Elaphae obsolata (black rat snake), and held between the donor and receptor compartments of a diffusion cell by O-rings. […] The diffusion cells were maintained at 32°±1° C. The amount of drug diffused into the receptor chamber was measured by HPLC using acetonitrile-water (2:3) at a flow rate of 1 ml/min as mobile phase, a C18 column and a UV detector set at […]. The results (Table IV below) are averages of five diffusion cells for each experiment.

The nature of series [4]: In vitro diffusion cell permeation through shed snake skin (Example 4). The format is in vitro ADME, Elaphae obsolete (black rat snake). The note with it: 32°; for flux of indomethacin: pH 7.2. As to the method:
as §1
Glass diffusion cells consisting of a donor and receptor cells separated by the shed snake skin membrane were assembled using circular O-ring joints held together by spring clamps. The exposed membrane surface area of the diffusion cell measured 1.8 cm^2. Before being mounted in the diffusion cell approximately 25 mg of an ointment containing the therapeutic agent and the penetration enhancer was carefully applied to the membrane and was spread over the desired area. The receptor side was filled with approximately 8.5 ml of buffer solution consisting of 1.5×10^-1 M NaCl, 5×10^-4 NaH2 PO4 and 2.0×10^-4 M Na2 HPO4 adjusted to pH 7.2 with NaOH. The diffusion cell was immersed vertically in a water bath maintained at 32°±1° C. The receptor cell was stirred constantly with a magnetic stirrer. To determine the amount of compound penetrated through the snake skin membrane from the upper chamber, 0.2 ml samples were withdrawn at varying intervals from the receptor chamber using a syringe. An equal amount of fresh buffer was replenished during sampling. The concentration of drug penetrated in each diffusion cell was measured using high pressure liquid chromatography. The results reported for each experiment are the average values from 5 replicate diffusion cells.
The ointments used for the experiments contained varying concentrations of the drug and penetration enhancing agent. The drug was dispersed in the enhancer and this was then mixed with white petrolatum USP using a vortex mixer around 55° C. The ointments were kept in a water bath at 32°±1° C. for 1 day before use in in vitro studies. See Tables II and III below for the results of penetration enhancement effects.

Series [5] is described as follows: Rat plasma hydrolysis. The format is in vitro ADME. As to conditions: 37° C., decanol generated, by GC, read-out: t 1/2 of enzymatic hydrolysis in rat plasma. As to the method: Freshly prepared rat plasma (2 ml) was mixed with decyl pyroglutamate (0.6 mg) and was maintained at 37° C. Aliquots were removed at different time intervals and vortexed with heptane (1 ml) containing dodecanol as an internal standard. The decanol produced by enzymatic hydrolysis was assayed by gas chromatography on a 6'×2 mm (id) column packed with OV-101 (methylsilicone) on gas chrom Q (100-120 mesh), programmed from 125° to 175° C.

Series [6] can be described thus: Aqueous solubility. The format is physicochemical. The note with it: water, at 32°.
[7] abbreviates: weight ratio of enhancer/indomethacin 15.0.
Where [8] appears, read: dodecyl pyroglutamate as enhancer, weight ratio of enhancer/drug 15.
Where [9] appears, read: dodecyl pyroglutamate, weight ratio of enhancer/drug 0 (no enhancer).

Take `CCCCCCCC/C=C\CCCCCCCCOC(=O)[C@@H]1CCC(=O)N1` [Oleyl pyroglutamate]: in series [1], the “Flux of clonidine ± SD” value is given as 0.26 ± 0.15 μg/cm^2 /hr, the “% of clonidine delivered in 48 hrs ± SD” value is given as 4.4 ± 1.4%, the “Flux of enalapril ± SD” value turned out to be 0.92 ± 0.22 μg/cm^2 /hr and the “% of enalapril delivered in 48 hrs ± SD” value was 18.7 ± 5.4%. In addition, in series [2], the “Primary Irritation Index (PII), T0-T72 hrs” value (shortened to “Primary Irritation Index”) is listed as 0.1 ± 0.3 and the “Secondary Irritation Index (SII) at 7 days” value (“Secondary Irritation Index” below) is 0. In addition, in series [3], the “Flux of 2,3-dihydro-5-hydroxy-6-(o-hydroxymethylcinnamyl)benzofuran ± SD” value is 0.95 ± 0.09 μg/cm^2 /hr. For the same molecule, the “% of 2,3-dihydro-5-hydroxy-6-(o-hydroxymethylcinnamyl)benzofuran delivered in 48 hrs ± SD” value in series [3] (48 hrs) is 21.7 ± 1.1%. Besides, the flux of indomethacin in series [4] (setting [7]) was found to be 0.450 μg/cm^2 /hr.

`CCCCCCCCCCOC(=O)[C@@H]1CCC(=O)N1` [Decyl pyroglutamate, Decyl Pyroglutamate]: in series [1], the “Flux of acyclovir ± SD” value stood at 0.063 ± 0.01 μg/cm^2 /hr, the “% of acyclovir delivered in 48 hrs ± SD” value is listed as 0.25 ± 0.03%, the “Flux of clonidine ± SD” value was found to be 0.31 ± 0.13 μg/cm^2 /hr and the “% of clonidine delivered in 48 hrs ± SD” value is recorded as 8.1 ± 2.1%. For the same molecule, in series [1], the “Flux of enalapril ± SD” value stood at 0.15 ± 0.01 μg/cm^2 /hr and the “% of enalapril delivered in 48 hrs ± SD” value is on record as 4.3 ± 0.9%. Besides, in series [2], the “Primary Irritation Index” value is 0.9 ± 1.1 and the “Secondary Irritation Index” value came to 0. In series [5], the half-life amounted to 1.7 min. In addition, the “Flux of 2,3-dihydro-5-hydroxy-6-(o-hydroxymethylcinnamyl)benzofuran ± SD” value in series [3] was 0.70 ± 0.06 μg/cm^2 /hr. Moreover, the “% of 2,3-dihydro-5-hydroxy-6-(o-hydroxymethylcinnamyl)benzofuran delivered in 48 hrs ± SD” value in series [3] (48 hrs) turned out to be 16.1 ± 3.0%. Moreover, in series [4] (setting [7]), the flux of indomethacin was 0.477 μg/cm^2 /hr.

Turning to `Nc1nc2c(ncn2COCCO)c(=O)[nH]1` [Acyclovir, reference compound], the “% delivered in 48 hrs ± SD” value in series [1] (acyclovir) is reported as “not detectable”.

For the molecule `CCCCCCCCCCCCN1CCCCCC1=O` [Azone, reference compound], in series [2], the “Primary Irritation Index” value was 4.0 ± 1.9 and the “Secondary Irritation Index” value is 0.

`OCc1ccccc1C=CCc1cc2c(cc1O)CCO2` [2,3-dihydro-5-hydroxy-6-(o-hydroxymethylcinnamyl)benzofuran, reference compound] gave a solubility in series [6] of less than 0.2 µg/mL. Also, the “Flux ± SD” value in series [3] (1% (w/w) drug, no enhancer) was determined as 0.19 μg/cm^2 /hr. In series [3] (1% (w/w) drug, no enhancer, 48 hrs), the “% delivered in 48 hrs ± SD” value stood at 4.24 ± 0.53%.

For `CC(C)NCC(O)COc1cccc2ccccc12` (centres unmarked) [Propranolol], the flux of drug in series [4] (setting [8]) is given as 7.410 μg/cm^2 /hr; in series [4] (setting [9]), 3.680 μg/cm^2 /hr.

Consider `C[C@]12CCC(=O)C=C1CC[C@@H]1[C@@H]2[C@@H](O)C[C@@]2(C)[C@H]1CC[C@]2(O)C(=O)CO` [Hydrocortisone], for which the values for the flux of drug in series [4] (setting [8]) and in series [4] (setting [9]) were 0.338 μg/cm^2 /hr and “Not detectable”, respectively.

As to `CC(C)=CCCC(C)=CCCC(C)=CCOC(=O)[C@@H]1CCC(=O)N1` [Farnesyl pyroglutamate], in series [2], the “Primary Irritation Index” value was 0 and the “Secondary Irritation Index” value is given as 0. The flux of indomethacin in series [4] (setting [7]) was 0.317 μg/cm^2 /hr.

`COc1ccc2c(c1)c(CC(=O)O)c(C)n2C(=O)c1ccc(Cl)cc1` [Indomethacin, indomethacin]: the flux of indomethacin result in series [4] (no enhancer) is on record as “non-detectable”.

Regarding `Clc1cccc(Cl)c1N=C1NCCN1` [Clonidine, reference compound], the “% delivered in 48 hrs ± SD” value in series [1] (clonidine, n = 12) is recorded as 1.1 ± 0.3%.

In the case of `CCCCCCCCCCCCOC(=O)[C@@H]1CCC(=O)N1` [Dodecyl pyroglutamate], in series [1], the “Flux of acyclovir ± SD” value is reported as 0.072 ± 0.04 μg/cm^2 /hr, the “% of acyclovir delivered in 48 hrs ± SD” value came to 0.26 ± 0.15%, the “Flux of clonidine ± SD” value was determined as 0.63 ± 0.21 μg/cm^2 /hr and the “% of clonidine delivered in 48 hrs ± SD” value was found to be 13.2 ± 0.6%. Besides, in series [1], the “Flux of enalapril ± SD” value turned out to be 0.51 ± 0.09 μg/cm^2 /hr and the “% of enalapril delivered in 48 hrs ± SD” value is listed as 9.9 ± 2.7%. Besides, in series [2], the “Primary Irritation Index” value was determined as 0 and the “Secondary Irritation Index” value was determined as 0. In addition, the “Flux of 2,3-dihydro-5-hydroxy-6-(o-hydroxymethylcinnamyl)benzofuran ± SD” value in series [3] came to 0.61 ± 0.04 μg/cm^2 /hr. Also, the “% of 2,3-dihydro-5-hydroxy-6-(o-hydroxymethylcinnamyl)benzofuran delivered in 48 hrs ± SD” value in series [3] (48 hrs) is 13.4 ± 1.5%. For the same molecule, in series [4] (setting [7]), the flux of indomethacin amounted to 0.630 μg/cm^2 /hr.

In general, solubility refers to the concentration that dissolves in the medium under given conditions.
